Experiment: Single-patient clinical case: combination therapy for Alzheimer's disease
Format: in vivo, human
Conditions: overall outcome as stated by applicant
Method: A patient suffering from significant memory loss and vision loss was evaluated for treatment. The patient suffered a gradual decline in both short-term and long-term memory over at least three years. The patient also complained about vision loss over a period of about six years. The patient scored 11 out of 30 on a mental status exam, indicating dementia or other cognitive impairment. A clinical psychologist determined that the patient was oriented to person, but poorly oriented to place and time. […] The patient acknowledged having anger problems. The patent denied having anxiety, mania, or depression but acknowledged occasional suicidal ideation. They denied having any current intent to harm […]. The patient's spouse reported that the patient would sometimes sit and rock back-and-forth. They also reported that the patient would sometimes hit their head when upset. There was no evidence that the patient suffered from delusions or hallucinations, and there was no evidence of agnosia. The patient previously had coronary artery bypass surgery and also suffered from type 2 diabetes mellitus for multiple decades. […] The patient also suffered from hepatitis C, but was not previously treated. It was determined that the patient was only able to perceive light in both eyes. The patient's loss of vision was due to glaucoma and diabetic retinopathy. […]

| Structure (SMILES) | outcome of treatment of Alzheimer's disease |
| --- | --- |
| COc1cc2c(cc1OC)C(=O)C(CC1CCN(Cc3ccccc3)CC1)C2 (centres unmarked) [donepezil] | unsuccessful |
| CC12CC3CC(C)(C1)CC(N)(C3)C2 [memantine] | unsuccessful |

— patent US20200306216A1, “CURE FOR ALZHEIMER'S DISEASE” (priority 2019, published 2020)
